From ChEMBL document CHEMBL1201862, “PubChem BioAssay data set” (2004) come the findings set out here.

Among the test systems are SNB-75; U-251; HL-60; HT-29; HOP-92; HCT-15; CCRF-CEM; SNB-78; LOX IMVI; IGROV-1; COLO 205; KM-20L2; Malme-3M; SK-MEL-2; OVCAR-5; NCI-H226; NCI-H522.
Common to all, as to assay: NCI tumour cell line growth inhibition, 48 h

The structures appear in SMILES notation.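 Grown in 96-well plates, cells were treated for 48 hours with each compound at five concentrations. Insufficient inhibition: endpoint recorded as highest concentration tested. GI50: concentration for 50% inhibition of growth.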 Active and inactive are the calls of the source. No stated cut-off is given here; in the data, active = GI50 up to about 1.1 µM and inactive = higher.

Regarding `O=c1ccccc2cccc(O)c12`, the GI50 in the assay on SNB-75 was > 100 µM (inactive); with U-251, > 100 µM (inactive); with HL-60 it was > 100 µM (inactive); with HT-29 it was > 100 µM (inactive); in the assay with HOP-92, 84.1 µM (inactive); with HCT-15, greater than 100 µM. Also, the GI50 in the assay on CCRF-CEM, with SNB-78, in the assay with LOX IMVI, with IGROV-1, in the assay on COLO 205 and in the assay on KM-20L2 was > 100 µM (inactive) in each case.

With `Cc1ccc(NC(=O)/C(=N/NC(=O)C[N+](C)(C)C)c2nc3ccccc3nc2O)cc1`, the GI50 was > 100 µM (inactive) in the assay on SNB-75; > 100 µM (inactive) in the assay with Malme-3M; 27.4 µM (inactive) with U-251; 91.4 µM (inactive) with HT-29; > 100 µM (inactive) with SK-MEL-2; > 100 µM (inactive) in the assay on OVCAR-5. The GI50 with HOP-92 is > 100 µM (inactive); in the assay with HCT-15, 81.1 µM; in the assay on SNB-78 it was > 100 µM (inactive); in the assay on LOX IMVI it was 51.4 µM (inactive); in the assay with IGROV-1, > 100 µM (inactive); with NCI-H226, > 100 µM (inactive). Also, the GI50 with COLO 205 was 76.9 µM (inactive); in the assay with KM-20L2, > 100 µM (inactive).

In the case of `COC(=O)[C@]12CSCN1C(=O)C(C(C)=O)=NN2C(=O)[C@](OC)(c1ccccc1)C(F)(F)F`, the GI50 was 88.7 µM (inactive) with NCI-H522; 8.17 µM (inactive) in the assay on SNB-75; > 100 µM (inactive) in the assay on Malme-3M; > 100 µM (inactive) with U-251; > 10 µM (inactive) with HL-60; > 100 µM (inactive) in the assay on HT-29. Besides, the GI50 is > 100 µM (inactive) with SK-MEL-2; > 100 µM (inactive) in the assay on OVCAR-5; greater than 100 µM in the assay with HCT-15; > 10 µM (inactive) in the assay on CCRF-CEM; > 100 µM (inactive) in the assay with SNB-78; > 100 µM (inactive) in the assay with LOX IMVI. The GI50 is > 100 µM (inactive) with IGROV-1, 88.9 µM (inactive) in the assay on NCI-H226, > 100 µM (inactive) with COLO 205 and > 100 µM (inactive) in the assay with KM-20L2.

Take `CCOC(=O)C(=O)Nc1c(N(CC)CC)n2ccccc2nc1=O`: the GI50 in the assay on NCI-H522, with SNB-75, in the assay on Malme-3M, in the assay with U-251, in the assay on HT-29 and in the assay on SK-MEL-2 was > 100 µM (inactive) throughout. The GI50 is > 100 µM (inactive) with OVCAR-5; > 100 µM (inactive) in the assay with HOP-92; greater than 100 µM with HCT-15; > 100 µM (inactive) in the assay with CCRF-CEM; > 100 µM (inactive) with SNB-78; > 100 µM (inactive) in the assay on IGROV-1. The GI50 with NCI-H226, with COLO 205 and in the assay with KM-20L2 was > 100 µM (inactive) throughout.

As for `CC(=O)OC(C)(C)C1CCC(C)(C(O)COc2ccc(CCNC(=O)c3ccccc3)cc2)O1` (centres undefined), the GI50 in the assay on NCI-H522 is 51.2 µM (inactive); with SNB-75, 91.6 µM (inactive); in the assay on Malme-3M, 63.5 µM (inactive); in the assay on U-251, 53.3 µM (inactive); with HL-60 it was 15.5 µM (inactive); in the assay on HT-29, > 100 µM (inactive). For the same compound, the GI50 was > 100 µM (inactive) with SK-MEL-2; > 100 µM (inactive) in the assay on OVCAR-5; > 100 µM (inactive) in the assay with HOP-92; 46 µM in the assay with HCT-15; 21.6 µM (inactive) in the assay with CCRF-CEM; 48.3 µM (inactive) in the assay with SNB-78. Also, the GI50 with LOX IMVI is 31.4 µM (inactive); in the assay with IGROV-1, > 100 µM (inactive); in the assay with COLO 205, > 100 µM (inactive); with KM-20L2, 73.1 µM (inactive).

Take `CN(C)c1ccc(/C=N/C23CC4CC(CC(C4)C2)C3)cc1`: the GI50 in the assay on NCI-H522 is > 100 µM (inactive); in the assay on SNB-75, > 10 µM (inactive); in the assay on Malme-3M, > 100 µM (inactive); with U-251, > 100 µM (inactive); in the assay with HL-60, > 100 µM (inactive); with HT-29, > 100 µM (inactive). Further, the GI50 in the assay with SK-MEL-2 was > 100 µM (inactive); in the assay with OVCAR-5 it was > 100 µM (inactive); in the assay with HCT-15 it was greater than 100 µM; in the assay on CCRF-CEM it was > 100 µM (inactive); with SNB-78, > 100 µM (inactive); in the assay with LOX IMVI, > 100 µM (inactive). Moreover, the GI50 with IGROV-1, in the assay with NCI-H226, in the assay with COLO 205 and with KM-20L2 was > 100 µM (inactive) throughout.

Turning to `O=c1ccn([C@H]2CSC[C@@H](CO)C2)c(=O)[nH]1`, the GI50 with NCI-H522 is > 100 µM (inactive); in the assay with SNB-75, 56.4 µM (inactive); with Malme-3M, > 100 µM (inactive); in the assay with U-251 it was > 100 µM (inactive); with HL-60, > 100 µM (inactive); with HT-29, > 100 µM (inactive). Besides, the GI50 in the assay on SK-MEL-2 is > 100 µM (inactive); with OVCAR-5, > 100 µM (inactive); in the assay on HOP-92 it was > 100 µM (inactive); with HCT-15, greater than 100 µM; in the assay on CCRF-CEM, > 100 µM (inactive); in the assay on SNB-78, > 100 µM (inactive). For the same compound, the GI50 in the assay with LOX IMVI, in the assay on IGROV-1, with NCI-H226 and in the assay with KM-20L2 was > 100 µM (inactive) throughout.

As to `Cc1c(-c2nnc(-c3ccccc3)o2)c(=O)n(-c2ccccc2)n1C`, the GI50 with NCI-H522, in the assay with SNB-75, with Malme-3M, with U-251, in the assay on HL-60 and in the assay on HT-29 was > 100 µM (inactive) each time. In addition, the GI50 is > 100 µM (inactive) in the assay on SK-MEL-2; > 100 µM (inactive) with HOP-92; greater than 100 µM in the assay with HCT-15; > 100 µM (inactive) in the assay with CCRF-CEM; > 100 µM (inactive) with SNB-78; > 100 µM (inactive) in the assay on LOX IMVI. For the same compound, the GI50 with IGROV-1, in the assay on NCI-H226, with COLO 205 and in the assay with KM-20L2 was > 100 µM (inactive) each time.

With `COC(=O)/C(=C/c1ccc(OC)cc1)C(C(=O)O)=C1CCCCC1`, the GI50 in the assay on NCI-H522, with SNB-75, with U-251, in the assay on HL-60, in the assay on HT-29 and in the assay on SK-MEL-2 was > 100 µM (inactive) throughout. Further, the GI50 in the assay on OVCAR-5 is > 100 µM (inactive); in the assay on HOP-92, > 100 µM (inactive); in the assay on HCT-15 it was greater than 100 µM; in the assay with CCRF-CEM, > 100 µM (inactive); in the assay with SNB-78, > 100 µM (inactive); with LOX IMVI, > 100 µM (inactive). Moreover, the GI50 in the assay with IGROV-1, in the assay on NCI-H226, with COLO 205 and in the assay with KM-20L2 was > 100 µM (inactive) each time.

As for `CC(=O)NNc1nc(C)c(C(=O)/C=C/c2ccc(Cl)c(Cl)c2)s1`, the GI50 is 95.9 µM (inactive) in the assay with NCI-H522; > 100 µM (inactive) in the assay on SNB-75; > 100 µM (inactive) in the assay on Malme-3M; > 100 µM (inactive) in the assay with U-251; > 100 µM (inactive) in the assay with HL-60; > 100 µM (inactive) with HT-29. Further, the GI50 with SK-MEL-2 was > 100 µM (inactive); in the assay on OVCAR-5, > 100 µM (inactive); in the assay on HOP-92, > 100 µM (inactive); in the assay on HCT-15 it was greater than 100 µM; with CCRF-CEM, 70.5 µM (inactive); in the assay with SNB-78, > 100 µM (inactive). Further, the GI50 in the assay on LOX IMVI, in the assay with IGROV-1, in the assay with COLO 205 and in the assay on KM-20L2 was > 100 µM (inactive) in each case.

As for `CN1C2(c3ccccc3)c3c(-c4ccccc4)sc(-c4ccccc4)c3C1(c1ccccc1)C1C(=O)N(c3ccccc3)C(=O)C12` (centres undefined), the GI50 with NCI-H522, with SNB-75, with Malme-3M, with U-251, in the assay with HL-60 and in the assay with HT-29 was > 100 µM (inactive) throughout. For the same compound, the GI50 in the assay on OVCAR-5, in the assay on HOP-92, in the assay on CCRF-CEM, with SNB-78, with LOX IMVI and in the assay on IGROV-1 was > 100 µM (inactive) throughout. In addition, the GI50 with NCI-H226, in the assay on COLO 205 and with KM-20L2 was > 100 µM (inactive) in each case.

Turning to `Cc1ccccc1-n1c(=S)[nH]c2c(sc(=O)n2-c2ccccc2C)c1=O`, the GI50 with NCI-H522, with SNB-75, in the assay with Malme-3M, in the assay on U-251, with HL-60 and in the assay with HT-29 was > 100 µM (inactive) each time. The GI50 in the assay on SK-MEL-2 was > 100 µM (inactive); in the assay with OVCAR-5, > 100 µM (inactive); with HOP-92, > 100 µM (inactive); in the assay on HCT-15 it was greater than 100 µM; in the assay on CCRF-CEM, > 100 µM (inactive); in the assay with SNB-78, > 100 µM (inactive). The GI50 in the assay with IGROV-1, with NCI-H226, in the assay on COLO 205 and with KM-20L2 was > 100 µM (inactive) each time.

`CC(=O)O[C@H]1C(=O)[C@@]2(C)C(C(OC(=O)c3ccccc3)[C@]3(O)CC(OC(=O)C(O)C(NC(=O)c4ccc(C)cc4)c4ccccc4)C(C)=C1C3(C)C)[C@]1(OC(C)=O)CO[C@@H]1C[C@@H]2O` (some centres undefined): the GI50 in the assay on NCI-H522 is < 0.0025 µM (active); in the assay on SNB-75, 0.0045 µM (active); in the assay on Malme-3M it was 0.0043 µM (active); in the assay with U-251 it was 0.00315 µM (active); in the assay on HL-60, < 0.0025 µM (active); in the assay with HT-29, < 0.0025 µM (active). The GI50 in the assay on SK-MEL-2 is < 0.0025 µM (active); with OVCAR-5 it was 0.00743 µM (active); in the assay on HCT-15, 0.173 µM; in the assay with CCRF-CEM, 0.00365 µM (active); with SNB-78, 4.02 µM (inactive); with LOX IMVI, 0.00352 µM (active). For the same compound, the values for the GI50 in the assay on IGROV-1, in the assay with COLO 205 and in the assay on KM-20L2 were < 0.0025 µM (active), < 0.0025 µM (active) and 0.00305 µM (active), respectively.
